Here are results for 14 compounds from patent publication US5220042A, “1,4-benzoquinone derivatives and benzene derivatives, and process for preparing the same” (priority 1984, dated 1993).

Assay [1] addresses T1, 5-lipoxygenase (Cavia porcellus, UniProt A0A286X958).
T1 construct: endogenous in cells; host or cells: guinea pig (Hartley strain) casein-elicited peritoneal exudate cells, intact cell suspension
T1 sequence (A0A286X958 1-674): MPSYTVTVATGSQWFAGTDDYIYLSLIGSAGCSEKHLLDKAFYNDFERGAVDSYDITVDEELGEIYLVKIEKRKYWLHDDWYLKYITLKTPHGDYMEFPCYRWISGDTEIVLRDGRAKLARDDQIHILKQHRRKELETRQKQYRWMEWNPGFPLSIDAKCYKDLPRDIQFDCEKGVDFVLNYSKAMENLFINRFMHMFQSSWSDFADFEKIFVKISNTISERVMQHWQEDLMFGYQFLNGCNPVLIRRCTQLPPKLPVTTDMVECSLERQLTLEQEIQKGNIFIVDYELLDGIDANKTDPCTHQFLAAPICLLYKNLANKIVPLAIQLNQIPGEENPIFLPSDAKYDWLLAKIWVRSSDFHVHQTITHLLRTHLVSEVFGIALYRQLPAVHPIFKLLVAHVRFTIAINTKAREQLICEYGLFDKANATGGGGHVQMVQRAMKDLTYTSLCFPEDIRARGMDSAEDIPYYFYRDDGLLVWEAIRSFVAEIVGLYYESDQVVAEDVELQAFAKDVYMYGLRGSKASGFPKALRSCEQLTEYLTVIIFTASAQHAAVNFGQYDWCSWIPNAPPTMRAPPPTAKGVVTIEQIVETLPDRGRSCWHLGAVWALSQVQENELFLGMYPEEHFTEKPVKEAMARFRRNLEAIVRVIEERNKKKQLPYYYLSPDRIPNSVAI
Kind of assay: 5-Lipoxygenase inhibitory activity (conversion of 14C-arachidonic acid to 5-HETE) in guinea pig peritoneal exudate cells. The format is cell-based, guinea pig (Hartley strain). To be noted: read-out: inhibition ratio (%) of 5-lipoxygenase activity; for inhibition at 30 µM: concentration 3 × 10^-5 M; for inhibition at 3 µM: concentration 3 × 10^-6 M; for inhibition at 10 µM: concentration 10^-5 M; for inhibition at 1 µM: concentration 10^-6 M; for inhibition at 0.3 µM: concentration 3 × 10^-7 M; for inhibition at 0.1 µM: concentration 10^-7 M. The method, then: 5-Lipoxygenase inhibitory activity of the present compounds was determined by a method according to procedures described in "J. Biol. Chem., Vol. 256, pages 4156-4159, (1981, Ibid. Vol. 258, pages 5754-5758 (1983).
(1) Preparation of Test Cells
A guinea pig (Hartley strain) (500-650 g body weight) was intraperitoneally administered with 2%-casein solution in 3/50 the volume of body weight. 14 Hours after the administration, the animal was sacrificed by bleeding and the peritoneal cavity was washed with Dulbecco's phosphate buffered saline (PBS) containing 3 U/ml of heparin and the exudate cells were harvested. The sample of cells was washed twice with Dulbecco's PBS (-), then the cells were suspended in Dulbecco's PBS (-), containing 1 mM of calcium chloride and 5.5 mM of glucose, so as to make a suspension having the concentration of 2.5×10^7 cells/ml.
To 0.2 ml of the above-mentioned cell suspension was added 10^-5 M of Indomethacine, and incubated at 30° C. for 2 minutes. Each of the appropriate concentrations of test compounds was added to the suspension respectively, further incubated for 2 minutes. Next, 10 μm of Ionophore A23187 (manufactured by Calbiochem-Behring, San Diego, Calif., U. S. A) was added to the suspension, further, 10 μm of ^14 C-arachidonic acid (manufactured by Amersham Japan, Ltd., Tokyo, Japan) was added and initiated the reaction. 3 Minutes after the initiation of the reaction, 0.1 ml of 0.2M-citric acid was added so as to terminate the reaction. 1.2 Milliliters of ethyl acetate was added to the reaction mixture and shaked for 5 minutes. The reaction mixture was centrifuged at 3,000 rpm for 5 minutes so as to separate the organic layer from the aqueous layer. 1 Milliliter of the organic layer (the upper layer) was dehydrated by passing through a mini-column packed with anhydrous sodium sulfate. The dehydrated organic layer was dried under nitrogen gas stream. The residue obtained was dissolved in ethyl acetate, and the total amount of the ethyl acetate solution was spotted onto thin layer chromochromatography (TCL) plate (Art. 11845 manufactured by E. Merck A. G.). The TCL was carried out with a mixed solvent of diethyl ether:petroleum:ether:acetic acid (50:50:1 volume/volume), then the radioactive metabolites on the plate were detected by using "Ultrafilm ^3 H" (a trademark for a X-ray film, manufactured by LKB Co.). Each fractions corresponding to the metabolites was scraped in to a scintillation vial, and 5 ml of "Scintilator ACS-II" (manufactured by Amersham Japan, Ltd.), was added then the radio-activity was determined by means of a liquid scintillation counter.

In assay [2] the test system is SRS-A release from lung fragments. The assay can be described thus: Inhibition of SRS-A release from sensitized guinea pig lung fragments. To be noted: Cavia porcellus, Table 2B, read-out: Inhibitory activities on SRS-A (%). The format is cell-based, guinea pig (Hartley strain). The method, then: Inhibitory activities on the release of SRS-A and histamine of the present compounds were determined.
A male guinea pig (Hartley strain) (body weight: about 300 g) was sensitized by a method according to P. Anderson: "Int. Archs. Allergey appln. Immunol., Vol. 64, pages 249-258 (1981). Thus, 30 mg/kg of cyclophosphamide was intraperitoneally administered to the guinea pig, and 2 days after 1 microgram of ovalbumin (manufactured by Sigma Chemical Co., St. Louis, Mo. U. S. A.) together with 10 mg of aluminium hydroxide gel were intraperitoneally administered so as to have the animal sesitized.
50 Days after the sesitization, the animal was killed by exsanguination, and the lung was isolated from the animal and was perfused with 20 ml of Tyrode's solution, then immersed in an ice-cooled Tyrode's solution. The parenchyma of the lung was cut by using McIlwain-type tissue chopper to make it into fragments of lung having 2 mm square and the fragments were washed with Tyrode's solution. 400 Milligrams of sectiles of lung were suspended in 3.6 ml of Tyrode's solution, and this suspension was preincubated at 37° C. for 5 minutes, then 4 microliters of dimethyl sulfoxide solution of the test compound, in the case of control 4 microliters of dimethyl sulfoxide alone was added to the suspension. 5 Minutes after, 0.4 ml of 100 micrograms/ml of ovalbumin solution added so as to release SRS-A for 10 minutes. The suspension was ice-cooled and filtered through gauze, the filtrate was centrifuged at 2,000 rpm for 10 minutes and the supernatant was collected. The supernatant was stored in freezed state at -80° C. until bio-assay was conducted.
Amounts of SRS-A and histamine contained in the supernatant were determined by bio-assay using ileum of guinea pig.
A piece of the ileum (2-3 cm of length) positioned from 15-25 cm from the opening portion of ileocecum was isolated from a male guinea pig (Hartley strain) (body weight: 400-600 g) which was fasted for 24 hours. The piece of ileum was hanged vertically in a Magnus tube which was filled with 10 ml of Tyrode's solution containing 10^-7 M of atropine sulfate under air stream conditions. The isotonic contraction of the piece of the ileum was measured at 0.5 g of load by using an isotonic transducer "TD-112S" (manufactured by Nihon Koden Co., Ltd.). The measurements were carried out after the reaction to histamine of the piece of ileum was kept constant. Bioassay of histamine was measured by using the value of contraction shown in 30 seconds after the addition of the supernatant. Bioassay of on SRS-A was measured by using the value of contraction shown at 2 minutes after the addition of the supernatant in the presence of 10^-6 M of pyrilamine (manufactured by Sigma Chemical Co.), and compared with the standard curve of crude SRS-A released from the fragments of the lung.

In the case of `CCCC/C=C\CCCCCCCCCC1=CC(=O)C=C(OC)C1=O` [Test Compound No. 1, 5-Methoxy-3-(Z-10-pentadecenyl)-1,4-benzoquinone], in assay [1], the inhibition at 30 µM was 87%, the inhibition at 3 µM was 13%, the inhibition at 10 µM came to 81% and the inhibition at 1 µM is 10%.
As for `CCCC/C=C\CCCCCCCC1=C(O)C(=O)C=C(OC)C1=O` [Test Compound No. 2, 5-Methoxy-2-hydroxy-3-(Z-8-tridecenyl)-1,4-benzoquinone], in assay [1], the inhibition at 0.3 µM turned out to be 22%, the inhibition at 1 µM was found to be 67% and the inhibition at 0.1 µM is 10%.
As for `COC1=CC(=O)C(O)=C(CCCCCCC/C=C\CCCCCCCC2=C(O)C(=O)C(C)=C(OC)C2=O)C1=O` [Test Compound No. 3, 1-(5-Methoxy-2-hydroxy-1,4-benzoquinon-3-yl)-16-(5-methoxy-2-hydroxy-6-methyl-1,4-benzoquinon-3-yl)-Z-8-hexadecene], in assay [1], the inhibition at 30 µM was determined as 96%, the inhibition at 3 µM was found to be 95%, the inhibition at 0.3 µM was determined as 44% and the inhibition at 10 µM turned out to be 97%. In assay [1], the inhibition at 1 µM was found to be 86% and the inhibition at 0.1 µM came out at 4%.
With `COC1=CC(=O)C(O)=C(CCCCCCCC2OC2CCCCCCCC2=C(O)C(=O)C=C(OC)C2=O)C1=O` (stereo not drawn) [Test Compound No. 4, 1,16-bis(5-Methoxy-2-hydroxy-1,4-benzoquinon-3-yl)-8,9-epoxyhexadecane], in assay [1], the inhibition at 3 µM came out at 96%, the inhibition at 0.3 µM worked out at 92%, the inhibition at 1 µM stood at 96% and the inhibition at 0.1 µM came to 66%.
In the case of `COC1=CC(=O)C(OC)=C(CCCCCCCC2OC2CCCCCCCC2=C(OC)C(=O)C=C(OC)C2=O)C1=O` (stereo not drawn) [Test Compound No. 5, 1,16-(2,5-Dimethoxy-1,4-benzoquinon-3-yl)-8,9-epoxyhexadecane], in assay [1], the inhibition at 3 µM was 86%, the inhibition at 0.3 µM was 24%, the inhibition at 1 µM came to 86% and the inhibition at 0.1 µM is 17%.
Consider `COC1=CC(=O)C(O)=C(CCCCCCC/C=C\CCCCCCCc2cc(O)c(C)c(O)c2)C1=O` [Test Compound No. 6, 1-(2-Hydroxy-5-methoxy-1,4-benzoquinon-3-yl)-16-(4-methyl-3,5-dihydroxyphenyl)-Z-8-hexadecene], for which, in assay [1], the inhibition at 0.3 µM came to 29%, the inhibition at 1 µM worked out at 58% and the inhibition at 0.1 µM worked out at 7%.
Regarding `COC1=CC(=O)C(O)=C(CCCCCCC/C=C\CCCCCCCc2cc(O)cc(O)c2)C1=O` [Test Compound No. 7, 1-(2-Hydroxy-5-methoxy-1,4-benzoquinon-3-yl)-16-(3,5-dihydroxyphenyl)-Z-8-hexadecene], in assay [1], the inhibition at 3 µM came out at 80%, the inhibition at 0.3 µM was determined as 28%, the inhibition at 1 µM is 70% and the inhibition at 0.1 µM was 24%.
On to `CCOC(=O)C1=C(OC)C(=O)C(CCCCCC2=C(OC)C(=O)C(CCO)=C(OC)C2=O)=C(OC)C1=O` [Test Compound No. 50, 1-(2,5-Dimethoxy-3-ethoxycarbonyl-1,4-benzoquinon-6-yl)-5-[2,5-dimethoxy-3-(2-hydroxyethyl)-1,4-benzoquinon-6-yl]pentane], for which, in assay [2], the inhibition at 1 µM came to 14.8% and the inhibition at 10 µM came to 41.7%.
As to `COC1=CC(=O)C(O)=C(CCCCCC2=C(O)C(=O)C=C(OC)C2=O)C1=O` [Test Compound No. 51, 2,2'-Pentamethylenebis(3-hydroxy-6-methoxy-1,4-benzoquinone)], in assay [2], the inhibition at 1 µM worked out at 11.8% and the inhibition at 10 µM stood at 60.8%.
For `NC1=CC(=O)C(N)=C(CCCCCC2=C(N)C(=O)C=C(N)C2=O)C1=O` [Test Compound No. 52, 2,2'-Pentamethylenebis(3,6-diamino-1,4-benzoquinone)], in assay [2], the inhibition at 1 µM is 10% and the inhibition at 10 µM amounted to 16.2%.
Take `COC1=CC(=O)C(OC)=C(CCCCCC2=C(OC)C(=O)C(OC)=C(OC)C2=O)C1=O` [Test Compound No. 53, 2,3,5-Trimethoxy-6-[5-(2,5-dimethoxy-1,4-benzoquinon-3-yl)pentyl]-1,4-benzoquinone]: in assay [2], the inhibition at 1 µM is 50.8% and the inhibition at 10 µM worked out at 94.9%.
As to `COC1=C(CCCCCC2=C(OC)C(=O)C(OC)=C(OC)C2=O)C(=O)C(OC)=C(OC)C1=O` [Test Compound No. 54, 2,2'-Pentamethylenebis(3,5,6-trimethoxy-1,4-benzoquinone)], in assay [2], the inhibition at 1 µM turned out to be 32% and the inhibition at 10 µM was 88.7%.
Taken in the same sequence, the figures for `CC1=C(C)C(=O)C(CCCCCC2=C(C)C(=O)C(C)=C(C)C2=O)=C(C)C1=O` [Test Compound No. 55, 2,2'-Pentamethylenebis(3,5,6-trimethyl-1,4-benzoquinone)] were 13.2% and 38.7%.
Turning to `COC1=CC(=O)C(OC)=C(CC2=C(OC)C(=O)C=C(OC)C2=O)C1=O` [compound 22], in assay [2], the inhibition at 1 µM was found to be 37.6% and the inhibition at 10 µM was determined as 85.4%.
